Laboratory results as given in ChEMBL document CHEMBL5303769, “Data for DCP probe JNJ-42226314” (2023).
Values belong to the compound of their own block, whether it stands above or below them.

Legend:
[1] = target: 5-hydroxytryptamine receptor 1D (Homo sapiens) (UniProt P28221); details: Compound concentration 10.0 uM
[2] = target: Alpha-1B adrenergic receptor (Homo sapiens) (UniProt P35368); details: Compound concentration 10.0 uM
[3] = target: Beta-3 adrenergic receptor (Homo sapiens) (UniProt P13945); details: Compound concentration 10.0 uM
Beta-3 adrenergic receptor (Homo sapiens), sequence (P13945 whole entry, looked up): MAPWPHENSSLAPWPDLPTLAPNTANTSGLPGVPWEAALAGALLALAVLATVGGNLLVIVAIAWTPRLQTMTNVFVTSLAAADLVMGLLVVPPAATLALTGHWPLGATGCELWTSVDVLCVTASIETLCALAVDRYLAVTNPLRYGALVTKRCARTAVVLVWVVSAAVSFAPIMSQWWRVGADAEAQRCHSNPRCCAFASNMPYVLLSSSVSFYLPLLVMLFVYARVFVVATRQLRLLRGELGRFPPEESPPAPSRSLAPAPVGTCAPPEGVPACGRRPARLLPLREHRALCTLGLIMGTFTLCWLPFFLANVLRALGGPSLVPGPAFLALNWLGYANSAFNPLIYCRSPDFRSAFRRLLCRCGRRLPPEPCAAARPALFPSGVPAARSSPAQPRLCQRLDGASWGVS

[4] = target: Muscarinic acetylcholine receptor M2 (Homo sapiens) (UniProt P08172); details: Compound concentration 10.0 uM
[5] = target: 5-hydroxytryptamine receptor 5A (Homo sapiens) (UniProt P47898); details: Compound concentration 10.0 uM
[6] = target: Monoacylglycerol lipase ABHD6 (Homo sapiens, UniProt Q9BV23); test: hABHD6 Endocannabinoid related and lipase panel
[7] = target: D(3) dopamine receptor (Homo sapiens) (UniProt P35462); details: Compound concentration 10.0 uM
[8] = target: Histamine H3 receptor (Homo sapiens) (UniProt Q9Y5N1); details: Compound concentration 10.0 uM
Histamine H3 receptor (Homo sapiens), sequence (Q9Y5N1 whole entry): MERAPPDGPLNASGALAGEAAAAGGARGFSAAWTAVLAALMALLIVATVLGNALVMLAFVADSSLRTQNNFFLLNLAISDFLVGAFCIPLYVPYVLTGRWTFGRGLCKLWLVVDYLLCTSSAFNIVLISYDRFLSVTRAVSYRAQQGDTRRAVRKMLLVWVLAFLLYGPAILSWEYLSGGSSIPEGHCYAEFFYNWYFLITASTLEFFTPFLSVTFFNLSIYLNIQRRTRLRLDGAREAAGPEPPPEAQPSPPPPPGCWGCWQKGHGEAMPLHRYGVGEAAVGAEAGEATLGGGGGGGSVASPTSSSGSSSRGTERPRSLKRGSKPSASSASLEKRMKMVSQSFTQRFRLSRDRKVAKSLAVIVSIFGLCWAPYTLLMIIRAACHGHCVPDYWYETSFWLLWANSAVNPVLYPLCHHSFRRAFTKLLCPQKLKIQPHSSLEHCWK

[9] = target: 5-hydroxytryptamine receptor 7 (Homo sapiens) (UniProt P34969); details: Compound concentration 10.0 uM
[10] = target: Chymotrypsin (Homo sapiens) (UniProt Q99895+P17538+P40313+Q6GPI1); test: Chymotrypsin Serine protease panel; assay type: protein assay; details: Compound concentration 10.0 uM
[11] = target: Lipoprotein lipase (Homo sapiens, UniProt P06858); test: Lipoprotein lipase Endocannabinoid related and lipase panel
[12] = target: 5-hydroxytryptamine receptor 6 (Homo sapiens) (UniProt P50406); details: Compound concentration 10.0 uM
[13] = target: Plasminogen (Homo sapiens) (UniProt P00747); test: Plasmin Serine protease panel; details: Compound concentration 10.0 uM
[14] = target: 5-hydroxytryptamine receptor 2A (Homo sapiens) (UniProt P28223); details: Compound concentration 10.0 uM
[15] = target: Beta-2 adrenergic receptor (Homo sapiens) (UniProt P07550); details: Compound concentration 10.0 uM
[16] = target: Delta-type opioid receptor (Homo sapiens) (UniProt P41143); details: Compound concentration 10.0 uM
[17] = target: Alpha-2C adrenergic receptor (Homo sapiens) (UniProt P18825); details: Compound concentration 10.0 uM
[18] = target: Beta-1 adrenergic receptor (Homo sapiens) (UniProt P08588); details: Compound concentration 10.0 uM
[19] = target: Hepatic triacylglycerol lipase (Homo sapiens, UniProt P11150); test: Hepatic lipase Endocannabinoid related and lipase panel
[20] = target: Sodium-dependent noradrenaline transporter (Homo sapiens) (UniProt P23975); details: Compound concentration 10.0 uM
[21] = target: Sigma non-opioid intracellular receptor 1 (Homo sapiens) (UniProt Q99720); details: Compound concentration 10.0 uM
[22] = target: 5-hydroxytryptamine receptor 1B (Homo sapiens) (UniProt P28222); details: Compound concentration 10.0 uM
[23] = target: Kallikrein-1 (Homo sapiens) (UniProt P06870); test: Kallikrein Serine protease panel; details: Compound concentration 10.0 uM
[24] = target: Histamine H2 receptor (Homo sapiens) (UniProt P25021); details: Compound concentration 10.0 uM
[25] = target: D(2) dopamine receptor (Homo sapiens) (UniProt P14416); details: Compound concentration 10.0 uM
[26] = target: Mu-type opioid receptor (Homo sapiens) (UniProt P35372); details: Compound concentration 10.0 uM
[27] = target: Prothrombin (Homo sapiens) (UniProt P00734); test: Thrombin Serine protease panel; details: Compound concentration 10.0 uM
[28] = target: Endothelial lipase (Homo sapiens, UniProt Q9Y5X9); test: Endothelial lipase Endocannabinoid related and lipase panel
[29] = target: Chymase (Homo sapiens) (UniProt P23946); test: Chymase Serine protease panel; details: Compound concentration 10.0 uM
[30] = target: Muscarinic acetylcholine receptor M4 (Homo sapiens) (UniProt P08173); details: Compound concentration 10.0 uM
[31] = target: T1, D(1B) dopamine receptor (Homo sapiens, UniProt P21918); details: Compound concentration 10.0 uM
T1 sequence (P21918 whole entry): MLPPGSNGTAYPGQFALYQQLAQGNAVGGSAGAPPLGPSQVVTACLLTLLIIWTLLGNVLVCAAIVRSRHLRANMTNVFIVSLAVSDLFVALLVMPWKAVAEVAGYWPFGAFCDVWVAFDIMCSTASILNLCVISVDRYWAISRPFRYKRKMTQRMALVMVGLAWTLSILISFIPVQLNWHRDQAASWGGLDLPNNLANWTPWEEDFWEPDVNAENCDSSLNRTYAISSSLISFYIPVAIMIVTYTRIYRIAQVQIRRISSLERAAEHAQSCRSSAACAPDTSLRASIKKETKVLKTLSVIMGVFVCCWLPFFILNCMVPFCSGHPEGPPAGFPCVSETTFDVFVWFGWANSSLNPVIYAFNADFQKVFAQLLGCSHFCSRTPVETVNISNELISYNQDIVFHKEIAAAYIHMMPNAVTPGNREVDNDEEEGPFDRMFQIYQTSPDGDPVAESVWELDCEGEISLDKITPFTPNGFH

[32] = target: 5-hydroxytryptamine receptor 3A (Homo sapiens) (UniProt P46098); details: Compound concentration 10.0 uM
[33] = target: Alpha-1A adrenergic receptor (Homo sapiens) (UniProt P35348); details: Compound concentration 10.0 uM
Alpha-1A adrenergic receptor (Homo sapiens), sequence (P35348 whole entry): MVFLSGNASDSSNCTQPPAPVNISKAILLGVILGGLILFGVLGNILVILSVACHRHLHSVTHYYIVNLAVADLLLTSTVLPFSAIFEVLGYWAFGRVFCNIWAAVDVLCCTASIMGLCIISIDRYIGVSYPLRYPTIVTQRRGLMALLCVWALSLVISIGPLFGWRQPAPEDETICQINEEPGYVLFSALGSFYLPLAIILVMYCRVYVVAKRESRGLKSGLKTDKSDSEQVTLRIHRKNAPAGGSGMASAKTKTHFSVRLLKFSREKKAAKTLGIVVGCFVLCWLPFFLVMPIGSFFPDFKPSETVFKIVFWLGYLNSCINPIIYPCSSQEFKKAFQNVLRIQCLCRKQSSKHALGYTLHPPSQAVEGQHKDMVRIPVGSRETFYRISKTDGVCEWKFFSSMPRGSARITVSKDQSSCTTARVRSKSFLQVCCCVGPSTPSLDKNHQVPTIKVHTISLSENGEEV

[34] = target: Muscarinic acetylcholine receptor M5 (Homo sapiens) (UniProt P08912); details: Compound concentration 10.0 uM
[35] = target: Sodium-dependent dopamine transporter (Homo sapiens) (UniProt Q01959); details: Compound concentration 10.0 uM
Sodium-dependent dopamine transporter (Homo sapiens), sequence (Q01959 whole entry): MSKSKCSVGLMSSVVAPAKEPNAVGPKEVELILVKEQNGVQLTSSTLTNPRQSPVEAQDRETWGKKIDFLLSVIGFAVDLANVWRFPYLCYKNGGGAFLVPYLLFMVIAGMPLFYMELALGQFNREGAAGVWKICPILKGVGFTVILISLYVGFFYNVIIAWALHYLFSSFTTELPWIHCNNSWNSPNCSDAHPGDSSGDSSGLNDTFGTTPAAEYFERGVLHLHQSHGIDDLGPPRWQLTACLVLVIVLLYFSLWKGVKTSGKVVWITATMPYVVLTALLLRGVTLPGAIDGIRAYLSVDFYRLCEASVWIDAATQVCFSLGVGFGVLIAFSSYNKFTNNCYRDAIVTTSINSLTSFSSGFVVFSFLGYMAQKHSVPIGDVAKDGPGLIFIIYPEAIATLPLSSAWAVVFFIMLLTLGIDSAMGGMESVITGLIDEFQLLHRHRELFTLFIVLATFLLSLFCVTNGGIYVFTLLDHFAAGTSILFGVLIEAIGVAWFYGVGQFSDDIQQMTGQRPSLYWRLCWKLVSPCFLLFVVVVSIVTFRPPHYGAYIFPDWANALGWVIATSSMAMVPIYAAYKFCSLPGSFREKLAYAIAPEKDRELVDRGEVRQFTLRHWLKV

[36] = target: Serine protease 1 (Homo sapiens) (UniProt P07477); test: Trypsin Serine protease panel; details: Compound concentration 10.0 uM
[37] = target: Coagulation factor X (Homo sapiens) (UniProt P00742); test: Factor Xa Serine protease panel; details: concentration not given here
[38] = target: Cathepsin G (Homo sapiens) (UniProt P08311); test: Cathepsin G Serine protease panel; details: Compound concentration 10.0 uM
[39] = target: Alpha-2A adrenergic receptor (Homo sapiens) (UniProt P08913); details: Compound concentration 10.0 uM
Alpha-2A adrenergic receptor (Homo sapiens), sequence (P08913 whole entry): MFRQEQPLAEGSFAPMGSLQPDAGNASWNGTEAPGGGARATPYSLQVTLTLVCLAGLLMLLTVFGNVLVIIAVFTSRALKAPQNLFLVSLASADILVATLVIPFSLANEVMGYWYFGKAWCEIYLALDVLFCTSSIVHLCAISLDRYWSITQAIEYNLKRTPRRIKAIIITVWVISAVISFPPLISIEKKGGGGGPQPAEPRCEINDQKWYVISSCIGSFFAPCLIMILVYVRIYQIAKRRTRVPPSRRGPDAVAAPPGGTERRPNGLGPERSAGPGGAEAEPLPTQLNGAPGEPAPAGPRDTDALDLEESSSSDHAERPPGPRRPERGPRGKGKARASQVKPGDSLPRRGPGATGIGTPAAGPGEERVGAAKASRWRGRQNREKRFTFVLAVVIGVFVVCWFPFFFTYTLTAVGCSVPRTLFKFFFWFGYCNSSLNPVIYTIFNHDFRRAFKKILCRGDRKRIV

[40] = target: Sodium-dependent serotonin transporter (Homo sapiens) (UniProt P31645); details: Compound concentration 10.0 uM
[41] = target: Histamine H1 receptor (Homo sapiens) (UniProt P35367); details: Compound concentration 10.0 uM
[42] = target: Neutrophil elastase (Homo sapiens) (UniProt P08246); test: Elastase Serine protease panel; details: Compound concentration 10.0 uM
[43] = target: Histamine H4 receptor (Homo sapiens) (UniProt Q9H3N8); details: Compound concentration 10.0 uM
[44] = target: Alpha-2B adrenergic receptor (Homo sapiens) (UniProt P18089); details: Compound concentration 10.0 uM
Alpha-2B adrenergic receptor (Homo sapiens), sequence (P18089 whole entry): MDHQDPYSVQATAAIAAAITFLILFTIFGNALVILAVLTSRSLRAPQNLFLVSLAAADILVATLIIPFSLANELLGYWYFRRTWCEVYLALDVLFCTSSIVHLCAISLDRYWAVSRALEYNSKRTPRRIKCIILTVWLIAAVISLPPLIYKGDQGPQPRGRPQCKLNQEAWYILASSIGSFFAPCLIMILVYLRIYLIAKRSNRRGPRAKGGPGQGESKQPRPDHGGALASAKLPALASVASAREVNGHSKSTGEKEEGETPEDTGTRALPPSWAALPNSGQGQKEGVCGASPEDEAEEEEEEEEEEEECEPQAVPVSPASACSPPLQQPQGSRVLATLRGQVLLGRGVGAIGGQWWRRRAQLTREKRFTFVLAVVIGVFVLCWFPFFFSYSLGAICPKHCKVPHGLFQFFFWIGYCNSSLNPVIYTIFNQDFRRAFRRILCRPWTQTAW

[45] = target: T2, Muscarinic acetylcholine receptor M3 (Homo sapiens, UniProt P20309); test: GPCRScan assay: inhibition of M3; design: radioligand conc. used [nm] 0.3 – 1.0, parental cells stable CHO
[46] = target: Sigma intracellular receptor 2 (Homo sapiens) (UniProt Q5BJF2); details: Compound concentration 10.0 uM
Sigma intracellular receptor 2 (Homo sapiens), sequence (Q5BJF2 whole entry): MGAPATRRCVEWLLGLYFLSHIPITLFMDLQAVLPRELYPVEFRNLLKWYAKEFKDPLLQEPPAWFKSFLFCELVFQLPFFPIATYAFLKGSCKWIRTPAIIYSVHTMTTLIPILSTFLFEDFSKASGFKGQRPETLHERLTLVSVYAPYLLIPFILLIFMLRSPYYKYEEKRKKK

[47] = species on record: Homo sapiens; test: Streptokinase Serine protease panel; details: Compound concentration 10.0 uM
[48] = target: Myeloblastin (Homo sapiens) (UniProt P24158); test: Proteinase 3 Serine protease panel; details: Compound concentration 10.0 uM
[49] = target: Alpha-1D adrenergic receptor (Homo sapiens) (UniProt P25100); details: Compound concentration 10.0 uM
Alpha-1D adrenergic receptor (Homo sapiens), sequence (P25100 whole entry): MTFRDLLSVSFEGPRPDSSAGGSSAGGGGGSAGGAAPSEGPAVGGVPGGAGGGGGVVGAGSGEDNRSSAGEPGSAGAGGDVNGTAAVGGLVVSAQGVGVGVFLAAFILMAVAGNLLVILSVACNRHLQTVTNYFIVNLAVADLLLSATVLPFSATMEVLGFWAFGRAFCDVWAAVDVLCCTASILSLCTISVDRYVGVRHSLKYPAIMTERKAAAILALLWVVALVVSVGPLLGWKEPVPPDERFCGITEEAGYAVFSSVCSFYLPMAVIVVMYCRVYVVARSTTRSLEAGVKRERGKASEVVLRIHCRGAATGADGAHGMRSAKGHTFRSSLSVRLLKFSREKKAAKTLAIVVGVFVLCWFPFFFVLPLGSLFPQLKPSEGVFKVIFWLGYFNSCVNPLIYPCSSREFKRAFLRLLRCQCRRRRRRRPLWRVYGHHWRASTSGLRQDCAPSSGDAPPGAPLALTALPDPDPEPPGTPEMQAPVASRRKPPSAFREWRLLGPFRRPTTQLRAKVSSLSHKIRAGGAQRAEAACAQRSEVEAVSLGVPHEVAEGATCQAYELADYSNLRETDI

[50] = target: Tryptase (Homo sapiens) (UniProt Q9BZJ3+Q15661+Q9NRR2); test: Tryptase Serine protease panel; details: Compound concentration 10.0 uM
[51] = species on record: Rattus norvegicus; details: Compound concentration 10.0 uM
[52] = target: 5-hydroxytryptamine receptor 1A (Homo sapiens) (UniProt P08908); details: Compound concentration 10.0 uM
5-hydroxytryptamine receptor 1A (Homo sapiens), sequence (P08908 whole entry): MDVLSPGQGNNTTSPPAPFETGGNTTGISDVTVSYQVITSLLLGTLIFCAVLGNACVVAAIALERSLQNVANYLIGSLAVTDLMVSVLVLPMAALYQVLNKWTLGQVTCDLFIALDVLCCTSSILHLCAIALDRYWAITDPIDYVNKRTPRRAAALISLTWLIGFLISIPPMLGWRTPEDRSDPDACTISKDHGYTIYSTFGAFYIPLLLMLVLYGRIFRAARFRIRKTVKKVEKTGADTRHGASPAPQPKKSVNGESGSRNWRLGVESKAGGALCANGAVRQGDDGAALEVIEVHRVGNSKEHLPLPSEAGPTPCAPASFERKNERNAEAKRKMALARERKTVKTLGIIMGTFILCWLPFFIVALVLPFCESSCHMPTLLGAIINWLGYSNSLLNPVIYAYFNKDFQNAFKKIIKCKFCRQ

[53] = target: 5-hydroxytryptamine receptor 2B (Homo sapiens) (UniProt P41595); details: Compound concentration 10.0 uM
[54] = target: Tissue-type plasminogen activator (Homo sapiens) (UniProt P00750); test: TPA Serine protease panel; details: Compound concentration 10.0 uM
[55] = target: Lysophosphatidylserine lipase ABHD12 (Homo sapiens, UniProt Q8N2K0); test: hABHD12 Endocannabinoid related and lipase panel
[56] = target: D(4) dopamine receptor (Homo sapiens) (UniProt P21917); details: Compound concentration 10.0 uM
[57] = target: T2, Muscarinic acetylcholine receptor M3; details: Compound concentration 10.0 uM
[58] = target: Coagulation factor VII (Homo sapiens) (UniProt P08709); test: Factor VIIa Serine protease panel; details: Compound concentration 10.0 uM
[59] = target: Urokinase-type plasminogen activator (Homo sapiens) (UniProt P00749); test: Urokinase Serine protease panel; details: Compound concentration 10.0 uM
[60] = target: Kappa-type opioid receptor (Homo sapiens) (UniProt P41145); details: Compound concentration 10.0 uM
[61] = target: 5-hydroxytryptamine receptor 2C (Homo sapiens) (UniProt P28335); details: Compound concentration 10.0 uM
[62] = target: Monoacylglycerol lipase (Homo sapiens); test: Fluorometric Assay (Inhibition of 4MU-B cleavage)
[63] = target: GABA-A receptor; anion channel (Rattus norvegicus) (UniProt O09028+P15431+P18506+P18508+P19969+P20236+P23574+P23576+P28471+P28473+P30191+P62813+P63079+P63138+Q91ZM7+Q9ES14); details: Compound concentration 10.0 uM
[64] = target: T1, D(1B) dopamine receptor; test: GPCRScan assay: inhibition of D5; design: radioligand conc. used [nm] 2.0 – 3.0, parental cells HEKT

5-hydroxytryptamine receptor 1D (Homo sapiens), sequence (P28221 whole entry): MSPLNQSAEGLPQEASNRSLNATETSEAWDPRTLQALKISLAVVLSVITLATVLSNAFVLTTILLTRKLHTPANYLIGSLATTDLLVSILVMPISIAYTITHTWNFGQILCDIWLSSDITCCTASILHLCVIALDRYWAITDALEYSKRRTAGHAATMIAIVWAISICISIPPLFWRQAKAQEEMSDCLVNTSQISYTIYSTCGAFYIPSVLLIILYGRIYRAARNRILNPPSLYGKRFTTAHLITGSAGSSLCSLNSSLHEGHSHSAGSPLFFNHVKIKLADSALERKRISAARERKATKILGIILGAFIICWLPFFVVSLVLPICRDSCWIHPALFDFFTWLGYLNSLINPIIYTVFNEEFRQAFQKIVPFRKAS

inhibition [1]: 18.2%
inhibition [2]: -6.82%
inhibition [3]: 0.7%
inhibition [4]: -3.14%
inhibition [5]: 17.7%
IC50 [6]: > 10 µM
inhibition [7]: 1.99%
inhibition [8]: 19.4%
inhibition [9]: 12.8%
inhibition [10]: -3%
IC50 [11]: > 30 µM
inhibition [12]: -9.24%
inhibition [13]: 4%
inhibition [14]: 7.06%
inhibition [15]: -2.21%
inhibition [16]: 9.83%
inhibition [17]: 4.03%
inhibition [18]: -2.68%
IC50 [19]: > 30 µM
inhibition [20]: 8.01%
inhibition [21]: 27.6%
inhibition [22]: 6.33%
inhibition [23]: 4%
inhibition [24]: 2.62%
inhibition [25]: -9.71%
inhibition [26]: 14.5%
inhibition [27]: -1%
IC50 [28]: > 30 µM
inhibition [29]: 11%
inhibition [30]: 1.62%
inhibition [31]: -0.29%
inhibition [32]: 19.3%
inhibition [33]: -2.02%
inhibition [34]: -7.3%
inhibition [35]: 25.2%
inhibition [36]: -10%
inhibition [37]: 0%
inhibition [38]: 13%
inhibition [39]: 14.2%
inhibition [40]: 8.15%
inhibition [41]: 4.93%
inhibition [42]: 4%
inhibition [43]: -8.52%
inhibition [44]: 9.63%
Ki [45]: > 10 µM
pKi [45]: < 5
inhibition [46]: 27.6%
inhibition [47]: 1%
inhibition [48]: 7%
inhibition [49]: 9.02%
inhibition [50]: 2%
inhibition [51]: -0.52%
inhibition [52]: 11.6%
inhibition [53]: 8.47%
inhibition [54]: 6%
IC50 [55]: > 10 µM
inhibition [56]: 0.01%
inhibition [57]: 54.7%
inhibition [58]: -5%
inhibition [59]: 2%
inhibition [60]: 11.1%
Compound: O=C(c1ccc2c(ccn2-c2ccc(F)cc2)c1)N1CC(N2CCN(C(=O)c3nccs3)CC2)C1

inhibition [1]: 22.7%
inhibition [2]: -7.67%
inhibition [3]: 23.6%
inhibition [4]: -3.68%
inhibition [5]: 11.5%
inhibition [61]: 2.58%
IC50 [62]: > 10 µM (not active)
inhibition [7]: 11.1%
inhibition [8]: 41.2%
inhibition [9]: 12.4%
inhibition [12]: 17%
inhibition [14]: 8.77%
inhibition [15]: 0.18%
inhibition [16]: 39%
inhibition [17]: 16.6%
inhibition [18]: -6.07%
inhibition [20]: 3.51%
inhibition [21]: 37.1%
inhibition [22]: 35%
inhibition [24]: 32.4%
inhibition [25]: 8.15%
inhibition [26]: 49.1%
inhibition [32]: 9.93%
inhibition [33]: -6.9%
inhibition [34]: -4.46%
inhibition [35]: 43.5%
inhibition [39]: 23.3%
inhibition [40]: 22.3%
inhibition [41]: 29.9%
inhibition [43]: -7.89%
inhibition [44]: 23%
inhibition [46]: 43.6%
inhibition [49]: 10.4%
inhibition [63]: 36.5%
inhibition [51]: 38%
Ki [64]: > 10 µM
pKi [64]: < 5
inhibition [52]: 18.1%
inhibition [53]: 8.86%
inhibition [56]: 16%
inhibition [57]: 48.9%
inhibition [60]: 24.2%
Compound: Cc1cc(C(=O)N2CCN(C3CN(C(=O)c4ccc(-c5ccccc5)cc4)C3)CC2)no1
